Assay results taken from patent US12252488B2 (Nimbus Saturn, Inc., priority 2021, dated 2025).
pIC50: −log10 of the molar value.

Molecular target: T1, HPK1 (Homo sapiens, UniProt Q92918)
T1 construct: purchased Invitrogen
Test: HPK1 biochemical enzyme assay (microfluidic mobility shift assay)
Conditions: 1000 uM (1 mM) ATP; Caliper mobility shift; 1.5 nM HPK1; 30 min preincubation; read-out: HPK1 1000UMATP caliper IC50
Method in brief: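 IC50 values, grouped into activity categories, come from 10-point titrations (top final 3 μM) preincubated 30 min with 1.5 nM enzyme and substrate at pH 7.4. ATP (1 mM), substrate (1 μM) and MgCl2 (5 mM) then added; after 60 min at RT, product separated by microfluidic mobility shift.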

T1 sequence (Q92918 whole entry): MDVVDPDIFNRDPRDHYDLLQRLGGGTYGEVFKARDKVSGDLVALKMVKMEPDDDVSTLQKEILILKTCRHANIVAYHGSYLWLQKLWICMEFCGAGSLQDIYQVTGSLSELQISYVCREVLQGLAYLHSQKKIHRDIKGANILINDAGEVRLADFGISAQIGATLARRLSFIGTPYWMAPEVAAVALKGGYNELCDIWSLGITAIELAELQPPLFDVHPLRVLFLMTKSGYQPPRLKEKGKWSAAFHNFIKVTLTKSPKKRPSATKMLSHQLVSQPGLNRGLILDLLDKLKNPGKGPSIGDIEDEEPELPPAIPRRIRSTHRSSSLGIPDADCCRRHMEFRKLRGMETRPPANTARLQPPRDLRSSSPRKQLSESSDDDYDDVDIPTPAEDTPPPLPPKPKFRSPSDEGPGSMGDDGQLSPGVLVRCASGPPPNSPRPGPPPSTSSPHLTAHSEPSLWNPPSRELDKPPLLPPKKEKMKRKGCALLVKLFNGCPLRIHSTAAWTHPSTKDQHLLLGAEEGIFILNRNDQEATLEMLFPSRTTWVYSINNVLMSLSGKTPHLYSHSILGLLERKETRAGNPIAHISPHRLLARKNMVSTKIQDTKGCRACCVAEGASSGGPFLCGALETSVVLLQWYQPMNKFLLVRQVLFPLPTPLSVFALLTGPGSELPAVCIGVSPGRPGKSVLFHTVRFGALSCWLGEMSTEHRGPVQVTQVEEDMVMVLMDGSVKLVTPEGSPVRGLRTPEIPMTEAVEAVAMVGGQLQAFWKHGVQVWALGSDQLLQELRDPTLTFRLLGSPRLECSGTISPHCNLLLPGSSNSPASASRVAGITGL

pIC50	Structure (SMILES)
≥ 7.00	CN1CCC(c2cc(Nc3ccc(N4CCC(O)CC4)cn3)c3c(=O)[nH]ccc3n2)CC1 [I-75, 4-[[5-(4-hydroxy-1-piperidyl)-2-pyridyl]amino]-2-(1-methyl-4-piperidyl)-6H-1,6-naphthyridin-5-one]
6.00 to 7.00	CC(=O)Nc1ccc(F)c(-c2cc(Nc3ccc(N4CCC(O)CC4)cn3)c3c(=O)[nH]ccc3n2)c1 [I-76, N-[4-fluoro-3-[4-[[5-(4-hydroxy-1-piperidyl)-2-pyridyl]amino]-5-oxo-6H-1,6-naphthyridin-2-yl]phenyl] acetamide]
6.00 to 7.00	CC(O)(c1cc(Nc2ccc(N3CCC(O)CC3)cn2)c2c(=O)[nH]ccc2n1)C(F)(F)F (stereo not shown) [I-77, 4-[[5-(4-hydroxy-1-piperidyl)-2-pyridyl]amino]-2-(2,2,2-trifluoro-1-hydroxy-1-methyl-ethyl)-6H-1,6-naphthyridin-5-one]
< 6.00	CC(=O)NC1CCCN(c2cc(Nc3ccc(N4CCC(O)CC4)cn3)c3c(=O)[nH]ccc3n2)C1 (stereo not shown) [I-78, N-[1-[4-[[5-(4-hydroxy-1-piperidyl)-2-pyridyl]amino]-5-oxo-6H-1,6-naphthyridin-2-yl]-3-piperidyl] acetamide]
6.00 to 7.00	CN(C)C(=O)c1ccc(F)c(-c2cc(Nc3ccc(N4CCC(O)CC4)cn3)c3c(=O)[nH]ccc3n2)c1 [I-79, 4-fluoro-3-[4-[[5-(4-hydroxy-1-piperidyl)-2-pyridyl]amino]-5-oxo-6H-1,6-naphthyridin-2-yl]-N,N-dimethyl-benzamide]
6.00 to 7.00	O=C(c1ccc(F)c(-c2cc(Nc3ccc(N4CCC(O)CC4)cn3)c3c(=O)[nH]ccc3n2)c1)N1CCOCC1 [I-80, 2-[2-fluoro-5-(morpholine-4-carbonyl)phenyl]-4-[[5-(4-hydroxy-1-piperidyl)-2-pyridyl]amino]-6H-1,6-naphthyridin-5-one]
≥ 7.00	O=c1[nH]ccc2nc(N3CCC[C@H](O)C3)cc(Nc3ccc(N4CCC(O)CC4)cn3)c12 [I-81, 2-[(3S)-3-hydroxy-1-piperidyl]-4-[[5-(4-hydroxy-1-piperidyl)-2-pyridyl]amino]-6H-1,6-naphthyridin-5-one]
6.00 to 7.00	O=c1[nH]ccc2nc(N3CCC[C@@H](O)C3)cc(Nc3ccc(N4CCC(O)CC4)cn3)c12 [I-82, 2-[(3R)-3-hydroxy-1-piperidyl]-4-[[5-(4-hydroxy-1-piperidyl)-2-pyridyl]amino]-6H-1,6-naphthyridin-5-one]
6.00 to 7.00	O=c1[nH]ccc2nc(N3CCCCC3)cc(Nc3ccc(N4CCC(O)CC4)cn3)c12 [I-83, 4-[[5-(4-hydroxy-1-piperidyl)-2-pyridyl]amino]-2-(1-piperidyl)-6H-1,6-naphthyridin-5-one]
6.00 to 7.00	O=c1[nH]ccc2nc(N3CCCC3)cc(Nc3ccc(N4CCC(O)CC4)cn3)c12 [I-84, 4-[[5-(4-hydroxy-1-piperidyl)-2-pyridyl]amino]-2-pyrrolidin-yl-6H-1,6-naphthyridin-5-one]
6.00 to 7.00	CNC(=O)c1ccc(F)c(-c2cc(Nc3ccc(N4CCC(O)CC4)cn3)c3c(=O)[nH]ccc3n2)c1 [I-85, 4-fluoro-3-[4-[[5-(4-hydroxy-1-piperidyl)-2-pyridyl]amino]-5-oxo-6H-1,6-naphthyridin-2-yl]-N-methyl-benzamide]
6.00 to 7.00	Cc1cc(F)c(-c2cc(Nc3ccc(N4CCC(O)CC4)cn3)c3c(=O)[nH]ccc3n2)cc1C [I-86, 2-(2-fluoro-4,5-dimethyl-phenyl)-4-[[5-(4-hydroxy-1-piperidyl)-2-pyridyl]amino]-6H-1,6-naphthyridin-5-one]
6.00 to 7.00	O=c1[nH]ccc2nc(N3CC[C@@H](O)C3)cc(Nc3ccc(N4CCC(O)CC4)cn3)c12 [I-87, 4-[[5-(4-hydroxy-1-piperidyl)-2-pyridyl]amino]-2-[(3R)-3-hydroxy-pyrrolidin-1-yl]-6H-1,6-naphthyridin-5-one]
≥ 7.00	O=c1[nH]ccc2nc(N3CC[C@H](O)C3)cc(Nc3ccc(N4CCC(O)CC4)cn3)c12 [I-88, 4-[[5-(4-hydroxy-1-piperidyl)-2-pyridyl]amino]-2-[(3S)-3-hydroxy-pyrrolidin-1-yl]-6H-1,6-naphthyridin-5-one]
< 6.00	Cc1c[nH]c(=O)c2c(Nc3ccc(N4CCC(O)CC4)cn3)cc(C(C)C)nc12 [I-89, 4-[[5-(4-hydroxy-1-piperidyl)-2-pyridyl]amino]-2-isopropyl-8-methyl-6H-1,6-naphthyridin-5-one]
6.00 to 7.00	Cc1c[nH]c(=O)c2c(Nc3ccc(N4CCC(O)CC4)cn3)ccnc12 [I-90, 4-[[5-(4-hydroxy-1-piperidyl)-2-pyridyl]amino]-8-methyl-6H-1,6-naphthyridin-5-one]
≥ 7.00	COc1ccc(F)c(-c2cc(Nc3ccc(N4CCNCC4)cn3)c3c(=O)[nH]ccc3n2)c1F [I-91, 2-(2,6-difluoro-3-methoxy-phenyl)-4-[(5-piperazin-1-yl-2-pyridyl)amino]-6H-1,6-naphthyridin-5-one]

pIC50	Structure (SMILES)
6.00 to 7.00	COc1ccc(F)c(-c2cc(Nc3ccc(N4CCC(O)CC4)cn3)c3c(=O)[nH]ccc3n2)c1F [I-92, 2-(2,6-difluoro-3-methoxyphenyl)-4-((5-(4-hydroxypiperidin-1-yl)pyridin-2-yl)amino)-1,6-naphthyridin-5(6H)-one]
≥ 7.00	O=C(c1ccc(F)c(-c2cc(Nc3ccc(N4CCC(O)CC4)cn3)c3c(=O)[nH]ccc3n2)c1)N1CCCC1 [I-93, 2-[2-fluoro-5-(pyrrolidine-1-carbonyl)phenyl]-4-[[5-(4-hydroxy-1-piperidyl)-2-pyridyl]amino]-6H-1,6-naphthyridin-5-one]
≥ 7.00	O=C(c1ccc(F)c(-c2cc(Nc3ccc(N4CCC(O)CC4)cn3)c3c(=O)[nH]ccc3n2)c1)N1CCCCC1 [I-94, 2-[2-fluoro-5-(piperidine-1-carbonyl)phenyl]-4-[[5-(4-hydroxy-1-piperidyl)-2-pyridyl]amino]-6H-1,6-naphthyridin-5-one]
6.00 to 7.00	O=C(c1ccc(F)c(-c2cc(Nc3ccc(N4CCC(O)CC4)cn3)c3c(=O)[nH]ccc3n2)c1)N1CCC1 [I-95, 2-[5-(azetidine-1-carbonyl)-2-fluoro-phenyl]-4-[[5-(4-hydroxy-1-piperidyl)-2-pyridyl]amino]-6H-1,6-naphthyridin-5-one]
6.00 to 7.00	CC(C)(C)c1ccc(F)c(-c2cc(Nc3ccc(N4CCC(O)CC4)cn3)c3c(=O)[nH]ccc3n2)c1 [I-96, 2-(5-tert-butyl-2-fluoro-phenyl)-4-[[5-(4-hydroxy-1-piperidyl)-2-pyridyl]amino]-6H-1,6-naphthyridin-5-one]
6.00 to 7.00	O=c1[nH]ccc2nc(-c3cc(C4CCC4)ccc3F)cc(Nc3ccc(N4CCC(O)CC4)cn3)c12 [I-97, 2-(5-cyclobutyl-2-fluoro-phenyl)-4-[[5-(4-hydroxy-1-piperidyl)-2-pyridyl]amino]-6H-naphthyridin-5-one]
≥ 7.00	N#CCc1ccc(F)c(-c2cc(Nc3ccc(N4CCC(O)CC4)cn3)c3c(=O)[nH]ccc3n2)c1 [I-98, 2-[4-fluoro-3-[4-[[5-(4-hydroxy-1-piperidyl)-2-pyridyl]amino]-5-oxo-6H-1,6-naphthyridin-2-yl]phenyl] acetonitrile]
6.00 to 7.00	CC(C)c1cccc(-c2cc(Nc3ccc(N4CCC(O)CC4)cn3)c3c(=O)[nH]ccc3n2)c1 [I-99, 4-[[5-(4-hydroxy-1-piperidyl)-2-pyridyl]amino]-2-(3-isopropyl-phenyl)-6H-1,6-naphthyridin-5-one]
≥ 7.00	COc1cc(OC)cc(-c2cc(Nc3ccc(N4CCC(O)CC4)cn3)c3c(=O)[nH]ccc3n2)c1 [I-100, 2-(3,5-dimethoxyphenyl)-4-[[5-(4-hydroxy-1-piperidyl)-2-pyridyl]amino]-6H-1,6-naphthyridin-5-one]
≥ 7.00	CC(C)c1ccc(Cl)c(-c2cc(Nc3ccc(N4CCC(O)CC4)cn3)c3c(=O)[nH]ccc3n2)c1 [I-101, 2-(2-chloro-5-isopropyl-phenyl)-4-[[5-(4-hydroxy-1-piperidyl)-2-pyridyl]amino]-6H-1,6-naphthyridin-5-one]
≥ 7.00	CC1(c2ccc(F)c(-c3cc(Nc4ccc(N5CCC(O)CC5)cn4)c4c(=O)[nH]ccc4n3)c2)CC1 [I-102, 2-[2-fluoro-5-(1-methylcyclo-propyl)phenyl]-4-[[5-(4-hydroxy-1-piperidyl)-2-pyridyl]amino]-6H-1,6-naphthyridin-5-one]
≥ 7.00	O=c1[nH]ccc2nc(-c3cc(C4COC4)ccc3F)cc(Nc3ccc(N4CCC(O)CC4)cn3)c12 [I-103, 2-[2-fluoro-5-(oxetan-3-yl)phenyl]-4-[[5-(4-hydroxy-1-piperidyl)-2-pyridyl]amino]-6H-1,6-naphthyridin-5-one]
< 6.00	CC(C)(C#N)c1ccc(F)c(-c2cc(Nc3ccc(N4CCC(O)CC4)cn3)c3c(=O)[nH]ccc3n2)c1 [I-104, 2-[4-fluoro-3-[4-[[5-(4-hydroxy-1-piperidyl)-2-pyridyl]amino]-5-oxo-6H-1,6-naphthyridin-2-yl]phenyl]-2-methyl-propane-nitrile]
< 6.00	N#CC1(c2ccc(F)c(-c3cc(Nc4ccc(N5CCC(O)CC5)cn4)c4c(=O)[nH]ccc4n3)c2)CC1 [I-105, 1-[4-fluoro-3-[4-[[5-(4-hydroxy-1-piperidyl)-2-pyridyl]amino]-5-oxo-6H-1,6-naphthyridin-2-yl]phenyl] cyclo-propane-carbonitrile]
≥ 7.00	O=c1[nH]ccc2nc(-c3cc(OC(F)(F)F)ccc3F)cc(Nc3ccc(N4CCC(O)CC4)cn3)c12 [I-106, 2-[2-fluoro-5-(trifluoro-methoxy)phenyl]-4-[[5-(4-hydroxy-1-piperidyl)-2-pyridyl]amino]-6H-1,6-naphthyridin-5-one]
6.00 to 7.00	O=c1[nH]ccc2nc(-c3cc4cc[nH]c4cc3F)cc(Nc3ccc(N4CCC(O)CC4)cn3)c12 [I-107, 2-(6-fluoro-1H-indol-5-yl)-4-[[5-(4-hydroxy-1-piperidyl)-2-pyridyl]amino]-6H-1,6-naphthyridin-5-one]
≥ 7.00	CN(C(=O)C1CC1)c1ccc(-c2cc(Nc3ccc(N4CCC(O)CC4)cn3)c3c(=O)[nH]ccc3n2)c(F)c1 [I-108, N-[3-fluoro-4-[4-[[5-(4-hydroxy-1-piperidyl)-2-pyridyl]amino]-5-oxo-6H-1,6-naphthyridin-2-yl]phenyl]-N-methyl-cyclopropane-carboxamide]
